# Assay results taken from ChEMBL document CHEMBL1201862, “PubChem BioAssay data set” (2004).
#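 Where inhibition never reached the appropriate level, the endpoint shown equals the highest concentration tested. Otherwise, values were interpolated linearly from a five-concentration, 48-hour dose response in 96-well plates. GI50 = concentration required for 50% inhibition of growth.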 Calls of active or inactive are those of the source. No stated cut-off is given here; in the data, active = GI50 up to about 1.1 µM and inactive = higher.
# Tests used:
# Test in all cases: inhibition of tumour cell growth, NCI panel, 48 h
# A549 = test system: A549
# EKVX = test system: EKVX
# 786-0 = test system: 786-0
# NCI-H522 = test system: NCI-H522
# SW-620 = test system: SW-620
# Hs-578T = test system: Hs-578T
# HCT-15 = test system: HCT-15
# SK-MEL-28 = test system: SK-MEL-28
# SN12C = test system: SN12C
# SF-268 = test system: SF-268
# SNB-75 = test system: SNB-75
# PC-3 = test system: PC-3
# ACHN = test system: ACHN
# T47D = test system: T47D
# MDA-MB-435 = test system: MDA-MB-435
# OVCAR-5 = test system: OVCAR-5
# RPMI-8226 = test system: RPMI-8226
# HT-29 = test system: HT-29
# K562 = test system: K562
# OVCAR-4 = test system: OVCAR-4
# DU-145 = test system: DU-145
# OVCAR-8 = test system: OVCAR-8
# NCI-H460 = test system: NCI-H460
# NCI-H226 = test system: NCI-H226
# COLO 205 = test system: COLO 205
# CCRF-CEM = test system: CCRF-CEM
# IGROV-1 = test system: IGROV-1
# SF-295 = test system: SF-295
# SR = test system: SR
# SK-MEL-5 = test system: SK-MEL-5
# SK-MEL-2 = test system: SK-MEL-2
# HCT-116 = test system: HCT-116
# MDA-N = test system: MDA-N
# NCI-H23 = test system: NCI-H23
# KM12 = test system: KM12
# HOP-62 = test system: HOP-62
# U-251 = test system: U-251
# M14 = test system: M14
# MDA-MB-231 = test system: MDA-MB-231
# SK-OV-3 = test system: SK-OV-3
# UACC-62 = test system: UACC-62
# HL-60 = test system: HL-60
# NCI/ADR-RES = test system: NCI/ADR-RES
# UACC-257 = test system: UACC-257
# HCC 2998 = test system: HCC 2998
# UO-31 = test system: UO-31
# SNB-19 = test system: SNB-19
# CAKI-1 = test system: CAKI-1
# RXF 393 = test system: RXF 393
# A498 = test system: A498
# MOLT-4 = test system: MOLT-4
# LOX IMVI = test system: LOX IMVI
# OVCAR-3 = test system: OVCAR-3
# SF-539 = test system: SF-539
# MCF7 = test system: MCF7
# TK-10 = test system: TK-10
# BT-549 = test system: BT-549
# HOP-92 = test system: HOP-92
smiles,measurement,setting,value
COC1=CC(=O)C2=C(C1=O)[C@H]1CC[C@]3(C)[C@@H](O)CC[C@H]3[C@@H]1CC2,GI50,A549,18.4 µM (inactive)
same,GI50,EKVX,16.8 µM (inactive)
same,GI50,786-0,19.5 µM (inactive)
same,GI50,NCI-H522,17.9 µM (inactive)
same,GI50,SW-620,32.7 µM (inactive)
same,GI50,Hs-578T,19.9 µM (inactive)
same,GI50,HCT-15,18 µM
same,GI50,SK-MEL-28,18.9 µM (inactive)
same,GI50,SN12C,17 µM (inactive)
same,GI50,SF-268,17.3 µM (inactive)
same,GI50,SNB-75,17.9 µM (inactive)
same,GI50,PC-3,16.4 µM (inactive)
same,GI50,ACHN,18 µM (inactive)
same,GI50,T47D,13.8 µM (inactive)
same,GI50,MDA-MB-435,17.9 µM (inactive)
same,GI50,OVCAR-5,19.2 µM (inactive)
same,GI50,RPMI-8226,19.3 µM (inactive)
same,GI50,HT-29,4.71 µM (inactive)
same,GI50,K562,28.9 µM (inactive)
same,GI50,OVCAR-4,17.2 µM (inactive)
same,GI50,DU-145,17.2 µM (inactive)
same,GI50,OVCAR-8,17.8 µM (inactive)
same,GI50,NCI-H460,18.3 µM (inactive)
same,GI50,NCI-H226,17.7 µM (inactive)
same,GI50,COLO 205,10.7 µM (inactive)
same,GI50,CCRF-CEM,6.67 µM (inactive)
same,GI50,IGROV-1,21.9 µM (inactive)
same,GI50,SF-295,16.7 µM (inactive)
same,GI50,SR,23.3 µM (inactive)
same,GI50,SK-MEL-5,15.5 µM (inactive)
same,GI50,SK-MEL-2,13.9 µM (inactive)
same,GI50,HCT-116,17 µM (inactive)
same,GI50,MDA-N,17.5 µM (inactive)
same,GI50,NCI-H23,23.7 µM (inactive)
same,GI50,KM12,18.4 µM (inactive)
same,GI50,HOP-62,16.2 µM (inactive)
same,GI50,U-251,17 µM (inactive)
same,GI50,M14,17.5 µM (inactive)
same,GI50,MDA-MB-231,2.21 µM (inactive)
same,GI50,SK-OV-3,45 µM (inactive)
same,GI50,UACC-62,17.5 µM (inactive)
same,GI50,HL-60,13 µM (inactive)
same,GI50,NCI/ADR-RES,27.5 µM (inactive)
same,GI50,UACC-257,16.4 µM (inactive)
same,GI50,HCC 2998,20.7 µM (inactive)
same,GI50,UO-31,20.7 µM (inactive)
same,GI50,SNB-19,24.4 µM (inactive)
same,GI50,CAKI-1,25 µM (inactive)
same,GI50,RXF 393,20.8 µM (inactive)
same,GI50,A498,52.8 µM (inactive)
same,GI50,MOLT-4,3.48 µM (inactive)
same,GI50,LOX IMVI,19.8 µM (inactive)
same,GI50,OVCAR-3,17.9 µM (inactive)
same,GI50,SF-539,16.9 µM (inactive)
same,GI50,MCF7,17 µM (inactive)
same,GI50,TK-10,27.9 µM (inactive)
same,GI50,BT-549,17.9 µM (inactive)
same,GI50,HOP-92,21.6 µM (inactive)
Cc1c(C(=O)NNc2ccccc2)n2c(S)nnc2c2ccccc12,GI50,A549,> 100 µM (inactive)
same,GI50,EKVX,> 100 µM (inactive)
same,GI50,786-0,> 100 µM (inactive)
same,GI50,NCI-H522,> 100 µM (inactive)
same,GI50,SW-620,> 100 µM (inactive)
same,GI50,Hs-578T,> 100 µM (inactive)
same,GI50,HCT-15,> 100 µM
same,GI50,SK-MEL-28,86.7 µM (inactive)
same,GI50,SN12C,> 100 µM (inactive)
same,GI50,SF-268,> 100 µM (inactive)
same,GI50,SNB-75,> 100 µM (inactive)
same,GI50,PC-3,> 100 µM (inactive)
same,GI50,ACHN,> 100 µM (inactive)
same,GI50,T47D,40.5 µM (inactive)
same,GI50,MDA-MB-435,> 100 µM (inactive)
same,GI50,OVCAR-5,> 100 µM (inactive)
same,GI50,RPMI-8226,58.2 µM (inactive)
same,GI50,HT-29,> 100 µM (inactive)
same,GI50,K562,> 100 µM (inactive)
same,GI50,OVCAR-4,> 100 µM (inactive)
same,GI50,DU-145,> 100 µM (inactive)
same,GI50,OVCAR-8,> 100 µM (inactive)
same,GI50,NCI-H460,> 100 µM (inactive)
same,GI50,NCI-H226,> 100 µM (inactive)
same,GI50,COLO 205,> 100 µM (inactive)
same,GI50,CCRF-CEM,> 100 µM (inactive)
same,GI50,IGROV-1,> 100 µM (inactive)
same,GI50,SF-295,54.6 µM (inactive)
same,GI50,SR,74.3 µM (inactive)
same,GI50,SK-MEL-5,> 100 µM (inactive)
same,GI50,SK-MEL-2,> 100 µM (inactive)
same,GI50,HCT-116,> 100 µM (inactive)
same,GI50,MDA-N,> 100 µM (inactive)
same,GI50,NCI-H23,> 100 µM (inactive)
same,GI50,KM12,> 100 µM (inactive)
same,GI50,HOP-62,> 100 µM (inactive)
same,GI50,U-251,> 100 µM (inactive)
same,GI50,M14,> 100 µM (inactive)
same,GI50,MDA-MB-231,> 100 µM (inactive)
same,GI50,SK-OV-3,> 100 µM (inactive)
same,GI50,UACC-62,> 100 µM (inactive)
same,GI50,HL-60,> 100 µM (inactive)
same,GI50,NCI/ADR-RES,> 100 µM (inactive)
same,GI50,UACC-257,> 100 µM (inactive)
same,GI50,HCC 2998,71.8 µM (inactive)
same,GI50,UO-31,73.1 µM (inactive)
same,GI50,SNB-19,> 100 µM (inactive)
same,GI50,CAKI-1,> 100 µM (inactive)
same,GI50,RXF 393,82.2 µM (inactive)
same,GI50,A498,> 100 µM (inactive)
same,GI50,MOLT-4,83.2 µM (inactive)
same,GI50,LOX IMVI,> 100 µM (inactive)
same,GI50,OVCAR-3,> 100 µM (inactive)
same,GI50,SF-539,> 100 µM (inactive)
same,GI50,MCF7,> 100 µM (inactive)
same,GI50,TK-10,> 100 µM (inactive)
same,GI50,BT-549,97.3 µM (inactive)
same,GI50,HOP-92,> 100 µM (inactive)
